# Values joined by “and” are separate entries in the source; they are usually repeats but may differ in a detail not shown here. Equal entries are not always repeated. Structures can show the parent of a compound that is named as a salt. Where two headings read alike, the source gives them in different places.
# What was measured:
# [1] = test system: p53 signaling (p53RE-bla HCT-116 cells); test: cells; format: cell-based
# [2] = test system: p53 signaling (p53RE-bla HCT-116 cells)
# [3] = test system: p53 signaling (p53RE-bla HCT-116 cells); conditions: for EC50: read-out: p53 activation EC50, HLM
# [4] = read-out: p53 activation EC50, cherry pick confirmation
# [5] = read-out: p53 activation EC50, primary screening
# [6] = Homo sapiens, HCT-116, read-out: p53 activation EC50, cherry pick confirmation
# [7] = Homo sapiens, HCT-116, read-out: p53 activation EC50, primary screening
# [8] = Homo sapiens, HCT-116, read-out: p53 activation efficacy, cherry pick confirmation
# [9] = Homo sapiens, HCT-116, read-out: p53 activation efficacy, primary screening
# [10] = read-out: EC50, p53 activation, primary screening
# [11] = Homo sapiens, HCT-116, read-out: Efficacy, p53 activation, cherry pick confirmation
compound,measurement,setting,value
CN1C(=O)N(c2ccccc2Br)Cc2cnc(Nc3ccc4c(c3)OCC(CO)O4)nc21 (stereo not drawn) [PharmaGSID_48519],"p53 activation efficacy, cherry pick confirmation",[1],31.694
same,"p53 activation efficacy, primary screening",[1],31.571
same,EC50,[1]; [4],13.6 µM
same,EC50,[1]; [5],9.59 µM
same,"p53 activation EC50, cherry pick confirmation",[2],inactive
same,"p53 activation EC50, primary screening",[2],inactive
same,"p53 activation efficacy, cherry pick confirmation",[2],inactive
same,"p53 activation efficacy, primary screening",[2],inactive
same,"p53 activation EC50, cherry pick confirmation",[3],inactive
same,"p53 activation EC50, primary screening",[3],inactive
same,"p53 activation efficacy, cherry pick confirmation",[3],inactive
same,"p53 activation efficacy, primary screening",[3],inactive
same,"Viability EC50, cherry pick confirmation",p53RE-bla HCT-116 cells,inactive
same,"Viability EC50, primary screening",p53RE-bla HCT-116 cells,inactive
same,"Viability efficacy, cherry pick confirmation",p53RE-bla HCT-116 cells,inactive
same,"Viability efficacy, primary screening",p53RE-bla HCT-116 cells,inactive
CC[n+]1c(-c2ccccc2)c2cc(N)ccc2c2ccc(N)cc21 [Ethidium bromide],EC50,[1]; [6],5.41 µM
same,EC50,[1]; [7],4.43 µM
same,Emax,[1]; [8],176%
same,Emax,[1]; [9],182%
same,"p53 activation EC50, cherry pick confirmation",[2],inactive
same,"p53 activation EC50, primary screening",[2],inactive
same,"p53 activation efficacy, cherry pick confirmation",[2],inactive
same,"p53 activation efficacy, primary screening",[2],inactive
same,"p53 activation EC50, cherry pick confirmation",[3],inactive
same,"p53 activation EC50, primary screening",[3],inactive
same,"p53 activation efficacy, cherry pick confirmation",[3],inactive
same,"p53 activation efficacy, primary screening",[3],inactive
same,"Viability EC50, cherry pick confirmation",p53RE-bla HCT-116 cells,inactive
same,"Viability EC50, primary screening",p53RE-bla HCT-116 cells,inactive
same,"Viability efficacy, cherry pick confirmation",p53RE-bla HCT-116 cells,inactive
same,"Viability efficacy, primary screening",p53RE-bla HCT-116 cells,inactive
"O=C(c1ccc(O)c(O)c1)c1ccc(O)cc1O [2,3',4,4'-Tetrahydroxybenzophenone]","p53 activation efficacy, cherry pick confirmation",[1],inactive
CCC[CH2][Sn]([Cl])([Cl])[CH2]CCC [Dibutyltin dichloride],"EC50, p53 activation, cherry pick confirmation",[1],inactive
same,"Efficacy, p53 activation, cherry pick confirmation",[1],inactive
same,"Efficacy, p53 activation, primary screening",[1],73.9367
same,EC50,[1]; [10],27.1 µM
same,"EC50, p53 activation, cherry pick confirmation",[2],inactive
same,"EC50, p53 activation, primary screening",[2],inactive
same,"Efficacy, p53 activation, cherry pick confirmation",[2],inactive
same,"Efficacy, p53 activation, primary screening",[2],inactive
same,"EC50, p53 activation, cherry pick confirmation",[3],inactive
same,"EC50, p53 activation, primary screening",[3],inactive
same,"Efficacy, p53 activation, cherry pick confirmation",[3],inactive
same,"Efficacy, p53 activation, primary screening",[3],inactive
same,"EC50, viability, primary screening",p53RE-bla HCT-116 cells,inactive
CC(C)(C)C(=O)OCOP(=O)(COCCn1cnc2c(N)ncnc21)OCOC(=O)C(C)(C)C [Adefovir dipivoxil],EC50,[1]; [6],1.47 µM
same,EC50,[1]; [7],5.18 µM
same,Emax,[1]; [8],60.8%
same,Emax,[1]; [9],106%
same,"p53 activation EC50, cherry pick confirmation",[2],inactive
same,"p53 activation EC50, primary screening",[2],inactive
same,"p53 activation efficacy, cherry pick confirmation",[2],inactive
same,"p53 activation efficacy, primary screening",[2],inactive
same,"p53 activation EC50, cherry pick confirmation",[3],inactive
same,"p53 activation EC50, primary screening",[3],inactive
same,"p53 activation efficacy, cherry pick confirmation",[3],inactive
same,"p53 activation efficacy, primary screening",[3],inactive
same,"Viability EC50, cherry pick confirmation",p53RE-bla HCT-116 cells,inactive
same,"Viability EC50, primary screening",p53RE-bla HCT-116 cells,inactive
same,"Viability efficacy, cherry pick confirmation",p53RE-bla HCT-116 cells,inactive
same,"Viability efficacy, primary screening",p53RE-bla HCT-116 cells,inactive
c1cc(OCC2CO2)ccc1Cc1ccc(OCC2CO2)cc1 (stereo not drawn) [Bis[4-(glycidyloxy)phenyl]methane],"Efficacy, p53 activation, cherry pick confirmation",[1],31.4403
same,"Efficacy, p53 activation, primary screening",[1],46.3017
same,EC50,"[1]; read-out: EC50, p53 activation, cherry pick confirmation",26.4 µM
same,EC50,[1]; [10],47.6 µM
same,"EC50, p53 activation, cherry pick confirmation",[2],inactive
same,"EC50, p53 activation, primary screening",[2],inactive
same,"Efficacy, p53 activation, cherry pick confirmation",[2],inactive
same,"Efficacy, p53 activation, primary screening",[2],inactive
same,"EC50, p53 activation, cherry pick confirmation",[3],inactive
same,"EC50, p53 activation, primary screening",[3],inactive
same,"Efficacy, p53 activation, cherry pick confirmation",[3],inactive
same,"Efficacy, p53 activation, primary screening",[3],inactive
same,"EC50, viability, cherry pick confirmation",p53RE-bla HCT-116 cells,inactive
same,"EC50, viability, primary screening",p53RE-bla HCT-116 cells,inactive
same,"Efficacy, viability, cherry pick confirmation",p53RE-bla HCT-116 cells,inactive
same,"Efficacy, viability, primary screening",p53RE-bla HCT-116 cells,inactive
CCS(=O)(=O)CCSP(=O)(OC)OC [Demeton-S-methylsulphon],p53 activation EC50,[1],inactive
same,p53 activation efficacy,[1],inactive
same,EC50,[2],11.8 µM
same,p53 activation efficacy,[2],41.936 and 34.343
same,p53 activation EC50,[3],inactive
same,Viability EC50,p53RE-bla HCT-116 cells,inactive
same,Viability efficacy,p53RE-bla HCT-116 cells,inactive
CCCCNC(=O)OCC#CI [3-Iodo-2-propynyl-N-butylcarbamate],"p53 activation efficacy, cherry pick confirmation",[1],104.439
same,"p53 activation efficacy, primary screening",[1],78.699
same,EC50,[1]; [4],34.4 µM
same,EC50,[1]; [5],47.6 µM
same,"p53 activation EC50, cherry pick confirmation",[2],inactive
same,"p53 activation EC50, primary screening",[2],inactive
same,"p53 activation efficacy, cherry pick confirmation",[2],inactive
same,"p53 activation efficacy, primary screening",[2],inactive
same,"p53 activation EC50, cherry pick confirmation",[3],inactive
same,"p53 activation EC50, primary screening",[3],inactive
same,"p53 activation efficacy, cherry pick confirmation",[3],inactive
same,"p53 activation efficacy, primary screening",[3],inactive
same,"Viability EC50, cherry pick confirmation",p53RE-bla HCT-116 cells,inactive
same,"Viability EC50, primary screening",p53RE-bla HCT-116 cells,inactive
same,"Viability efficacy, cherry pick confirmation",p53RE-bla HCT-116 cells,inactive
same,"Viability efficacy, primary screening",p53RE-bla HCT-116 cells,inactive
CSc1ccc2c(c1)N(CCC1CCCCN1C)c1ccccc1S2 (stereo not drawn) [Thioridazine hydrochloride],Emax,[1]; [11],51.8%
same,Emax,"[1]; Homo sapiens, HCT-116, read-out: Efficacy, p53 activation, primary screening",64.5%
same,"EC50, p53 activation, cherry pick confirmation",[2],inactive
same,"EC50, p53 activation, primary screening",[2],inactive
same,"Efficacy, p53 activation, cherry pick confirmation",[2],inactive
same,"Efficacy, p53 activation, primary screening",[2],inactive
same,"EC50, p53 activation, cherry pick confirmation",[3],inactive
same,"EC50, p53 activation, primary screening",[3],inactive
same,"Efficacy, p53 activation, cherry pick confirmation",[3],inactive
same,"Efficacy, p53 activation, primary screening",[3],inactive
Irinotecan hydrochloride,"Efficacy, p53 activation, cherry pick confirmation",[1],86.836
same,"Efficacy, p53 activation, primary screening",[1],70.7017
same,EC50,[1]; [10],4.18 µM
Phenylmercuric acetate,"p53 activation Efficacy, No MS",[1],66.4107% and 63.4503%
same,"p53 activation EC50, RLM",[2],inactive
same,"p53 activation Efficacy, RLM",[2],inactive
same,"p53 activation EC50, HLM",[3],inactive
same,EC50,[3],12.5 µM
Oc1c(Cl)cc(Cl)cc1Sc1cc(Cl)cc(Cl)c1O [Bithionol],"Efficacy, p53 activation, primary screening",[1],93.9867
same,EC50,"[1]; Homo sapiens, HCT-116, read-out: EC50, p53 activation, cherry pick confirmation",20.3 µM
same,Emax,[1]; [11],74%
same,EC50,[1]; [10],39.6 µM
same,"EC50, p53 activation, cherry pick confirmation",[2],inactive
same,"EC50, p53 activation, primary screening",[2],inactive
same,"Efficacy, p53 activation, cherry pick confirmation",[2],inactive
same,"Efficacy, p53 activation, primary screening",[2],inactive
same,"EC50, p53 activation, cherry pick confirmation",[3],inactive
same,"EC50, p53 activation, primary screening",[3],inactive
same,"Efficacy, p53 activation, cherry pick confirmation",[3],inactive
same,"Efficacy, p53 activation, primary screening",[3],inactive
"CC(C)c1ccc2cc(C(C)C)ccc2c1 [2,6-Diisopropylnaphthalene]","Efficacy, p53 activation, cherry pick confirmation",[1],inactive
same,"Efficacy, p53 activation, cherry pick confirmation",[2],inactive
same,"Efficacy, p53 activation, primary screening",[2],inactive
"O=C1CCCc2c1cc1ccc3cccc4ccc2c1c34 [9,10-Dihydrobenzo[a]pyren-7(8H)-one]","p53 activation EC50, RLM",[2],inactive
same,"p53 activation Efficacy, RLM",[2],inactive
same,"p53 activation EC50, HLM",[3],inactive
same,EC50,[3],9.29 µM
same,"Viability EC50, HLM",p53RE-bla HCT-116 cells,inactive
same,"Viability EC50, No MS",p53RE-bla HCT-116 cells,inactive
same,"Viability EC50, RLM",p53RE-bla HCT-116 cells,inactive
same,"Viability Efficacy, HLM",p53RE-bla HCT-116 cells,inactive
same,"Viability Efficacy, No MS",p53RE-bla HCT-116 cells,inactive
same,"Viability Efficacy, RLM",p53RE-bla HCT-116 cells,inactive

# — PMC9151520 (Archives of Toxicology, 2022)
